Assay results: patent publication US6558686B1, “Method of coating medical devices with a combination of antiseptics and antiseptic coating therefor” (Baylor College of Medicine, priority 1995, dated 2003)

Key:
[1] = test system: Candida albicans; assay: Zones of inhibition, coated stainless steel cylinders on agar (Example 1); format: cell-based; details: coated stainless steel cylinder, 18-24 hours at 37° C.
Description: (§1) Antiseptic coatings were applied to each of four stainless steel cylinders (0.5″ diameter×2″ length), using each of the above four antiseptic solutions, by dipping each cylinder for 1 minute at 50° C. in the respective solution.

[2] = test system: Candida albicans; assay: Zones of inhibition, single-layer coated stainless steel cylinders (Example 4); format: cell-based; details: single-layer coated stainless steel cylinder, 18-24 hours at 37° C.
Description: (§3) Stainless steel cylinders (0.5×2″) were dipped in one of the three antiseptic coating solutions for 1 minute at 50° C. Devices were allowed to dry for at least 4 hours, then placed into agar plates that had been freshly overlaid with one of the microorganisms shown below in Table 4. After 18-24 hours of incubation at 37° C., the following measurements of zones of inhibition were recorded.

[3] = test system: S. epidermidis; assay: as above; details: single-layer coated stainless steel cylinder, 18-24 hours at 37° C.
Description: as §3

[4] = test system: P. aerug; assay: as above; format: cell-based; details: single-layer coated stainless steel cylinder, 18-24 hours at 37° C.
Description: as §3

[5] = test system: Staph. epidermidis; assay: Zones of inhibition, coated stainless steel cylinders on agar (Example 1); format: cell-based, Staphylococcus epidermidis; details: coated stainless steel cylinder, 18-24 hours at 37° C.
Description: as §1

[6] = cited from earlier work
[7] = test system: Pseud. aeruginosa; assay: Zones of inhibition, coated stainless steel cylinders on agar (Example 1); format: cell-based, Pseudomonas aeruginosa; details: coated stainless steel cylinder, 18-24 hours at 37° C.
Description: as §1

[8] = test system: Pseudomonas; assay: Antimicrobial activity of coated silicone urinary catheters, initial and after 1 week in urine (Example 5); format: cell-based, Pseudomonas aeruginosa; details: for Pseudomonas 1 week (antimicrobial activity of coated catheter): catheter segments incubated in urine for 1 week at 37° C.; for Pseudomonas Initial (antimicrobial activity of coated catheter): silicone urinary catheter
Description: (§2) A first antiseptic solution was formed by dissolving chloroxylenol (200 mg/ml) in an 85:15 solution of butyl acetate: methanol that has NaOH (5 mg/ml of methanol). A second antiseptic solution was formed by dissolving thymol (150 mg/ml) in an 85:15 solution of butyl acetate: methanol that has NaOH (5 mg/ml of methanol). A third antiseptic solution was formed by dissolving chloroxylenol (200 mg/ml) and thymol (150 mg/ml) in an 85:15 solution of butyl acetate: methanol that has NaOH (5 mg/ml of methanol). Eighteen-french silicone urinary catheters were dipped in one of the above coating solutions for 1 hour at 45° C. The catheters were allowed to dry overnight then rinsed.

[9] = test system: Candida albicans; assay: as above; format: cell-based; details: for Candida albicans 1 week (antimicrobial activity of coated catheter): catheter segments incubated in urine for 1 week at 37° C.; for Candida albicans Initial (antimicrobial activity of coated catheter): silicone urinary catheter
Description: as §2

[10] = test system: Enterococcus; assay: as above; format: cell-based; details: for Enterococcus 1 week (antimicrobial activity of coated catheter): catheter segments incubated in urine for 1 week at 37° C.; for Enterococcus Initial (antimicrobial activity of coated catheter): silicone urinary catheter
Description: as §2

[11] = test system: S. epidermidis; assay: as above; format: cell-based; details: for S. epidermidis 1 week (antimicrobial activity of coated catheter): catheter segments incubated in urine for 1 week at 37° C.; for S. epidermidis Initial (antimicrobial activity of coated catheter): silicone urinary catheter
Description: as §2

[12] = test system: E. coli; assay: as above; format: cell-based; details: for E. coli 1 week (antimicrobial activity of coated catheter): catheter segments incubated in urine for 1 week at 37° C.; for E. coli Initial (antimicrobial activity of coated catheter): silicone urinary catheter
Description: as §2

Structure (SMILES) | Zones of inhibition Candida albicans [1] | Zones of inhibition Candida albicans [2] | Zones of inhibition S. epidermidis [3] | Zones of inhibition P. aerug [4] | Zones of inhibition Staph. epidermidis [5] | Solubility in acetic acid ([6]; acetic acid) | Solubility in formic acid ([6]; formic acid) | Solubility in organic solvents ([6]; organic solvents) | Zones of inhibition Pseud. aeruginosa [7] | Pseudomonas 1 week (antimicrobial activity of coated catheter) [8] | Pseudomonas Initial (antimicrobial activity of coated catheter) [8] | Candida albicans 1 week (antimicrobial activity of coated catheter) [9] | Candida albicans Initial (antimicrobial activity of coated catheter) [9] | Enterococcus 1 week (antimicrobial activity of coated catheter) [10] | Enterococcus Initial (antimicrobial activity of coated catheter) [10] | S. epidermidis 1 week (antimicrobial activity of coated catheter) [11] | S. epidermidis Initial (antimicrobial activity of coated catheter) [11] | E. coli 1 week (antimicrobial activity of coated catheter) [12] | E. coli Initial (antimicrobial activity of coated catheter) [12]
[H]/N=C(\N/C(=N/[H])NCCCCCCNC(=N)NC(=N)Nc1ccc(Cl)cc1)Nc1ccc(Cl)cc1 [Chlorhexidine] | 26 m.m. | 28 m.m. | 30 m.m. | 25 m.m. | 31 m.m. | soluble | soluble | generally not soluble | 28 m.m. | – | – | – | – | – | – | – | – | – | –
Cc1cc(O)cc(C)c1Cl [Chloroxylenol, 4-chloro, 3,5-dimethyl phenol] | – | – | – | – | – | – | – | – | – | 0 | 10 | 26 | 30 | 10 | 13 | 20 | 25 | 11 | 15
Cc1ccc(C(C)C)c(O)c1 [Thymol, 5-methyl-2 isopropyl phenol] | 14 m.m. | – | – | – | 23 m.m. | – | – | – | 18 m.m. | 0 | 11 | 38 | 60 | 17 | 28 | 30 | 38 | 28 | 35
